Results as given in ChEMBL document CHEMBL5303573, “Mapping human microbiome drug metabolism by gut bacteria and their genes” (Nature, 2019).

What was measured:
[1] = The drug is tested on Ruminococcus torques strain: ATCC27756 for biotransformation. The drug concentrations were measured before and after a 12-h incubation by liquid-chromatography-coupled mass spectrometry (LC–MS); assay type: ADME; parameters: dose 2 uM, timepoint 0 vs 12 hours; settings: 2 µM
[2] = The drug is tested on Bacteroides fragilis strain: HMW615 for biotransformation. The drug concentrations were measured before and after a 12-h incubation by liquid-chromatography-coupled mass spectrometry (LC–MS); settings: 2 µM
[3] = anaerostipes sp., 12 h, 2 µM
Description: The drug is tested on Anaerostipes sp. strain: fecal isolate for biotransformation. The drug concentrations were measured before and after a 12-h incubation by liquid-chromatography-coupled mass spectrometry (LC–MS)

[4] = The drug is tested on Eubacterium ventriosum strain: ATCC27560 for biotransformation. The drug concentrations were measured before and after a 12-h incubation by liquid-chromatography-coupled mass spectrometry (LC–MS); assay type: ADME; parameters: dose 2 uM, timepoint 0 vs 12 hours; settings: 2 µM
[5] = The drug is tested on Enterococcus faecalis strain: V583 for biotransformation. The drug concentrations were measured before and after a 12-h incubation by liquid-chromatography-coupled mass spectrometry (LC–MS); settings: 2 µM
[6] = The drug is tested on Ruminococcus lactaris strain: ATCC29176 for biotransformation. The drug concentrations were measured before and after a 12-h incubation by liquid-chromatography-coupled mass spectrometry (LC–MS); settings: 2 µM
[7] = The drug is tested on Coprococcus comes strain: ATCC27758 for biotransformation. The drug concentrations were measured before and after a 12-h incubation by liquid-chromatography-coupled mass spectrometry (LC–MS); assay type: ADME; parameters: dose 2 uM, timepoint 0 vs 12 hours; settings: 2 µM
[8] = The drug is tested on Odoribacter splanchnicus strain: fecal isolate for biotransformation. The drug concentrations were measured before and after a 12-h incubation by liquid-chromatography-coupled mass spectrometry (LC–MS); settings: 2 µM
[9] = The drug is tested on Bacteroides vulgatus strain: ATCC8482 for biotransformation. The drug concentrations were measured before and after a 12-h incubation by liquid-chromatography-coupled mass spectrometry (LC–MS); settings: phocaeicola vulgatus, 2 µM
[10] = The drug is tested on Bifidobacterium ruminantium strain: fecal isolate for biotransformation. The drug concentrations were measured before and after a 12-h incubation by liquid-chromatography-coupled mass spectrometry (LC–MS); settings: 2 µM
[11] = akkermansia muciniphila, 12 h, 2 µM
Description: The drug is tested on Akkermansia muciniphila strain: ATCC BAA-835 for biotransformation. The drug concentrations were measured before and after a 12-h incubation by liquid-chromatography-coupled mass spectrometry (LC–MS)

[12] = The drug is tested on Bacteroides xylanisolvens strain: DSM18836 for biotransformation. The drug concentrations were measured before and after a 12-h incubation by liquid-chromatography-coupled mass spectrometry (LC–MS); settings: 2 µM
[13] = The drug is tested on Alistipes indistinctus strain: DSM22520 for biotransformation. The drug concentrations were measured before and after a 12-h incubation by liquid-chromatography-coupled mass spectrometry (LC–MS); settings: 2 µM
[14] = The drug is tested on Bacteroides uniformis strain: ATCC8492 for biotransformation. The drug concentrations were measured before and after a 12-h incubation by liquid-chromatography-coupled mass spectrometry (LC–MS); settings: 2 µM
[15] = The drug is tested on Clostridium sporogenes strain: ATCC15579 for biotransformation. The drug concentrations were measured before and after a 12-h incubation by liquid-chromatography-coupled mass spectrometry (LC–MS); settings: 2 µM
[16] = The drug is tested on Dorea formicigenerans strain: ATCC27755 for biotransformation. The drug concentrations were measured before and after a 12-h incubation by liquid-chromatography-coupled mass spectrometry (LC–MS); settings: 2 µM
[17] = roseburia intestinalis, 12 h, 2 µM
Description: The drug is tested on Roseburia intestinalis strain: L1-82 for biotransformation. The drug concentrations were measured before and after a 12-h incubation by liquid-chromatography-coupled mass spectrometry (LC–MS)

[18] = segatella copri, 12 h, 2 µM
Description: The drug is tested on Prevotella copri strain: DSM18205 for biotransformation. The drug concentrations were measured before and after a 12-h incubation by liquid-chromatography-coupled mass spectrometry (LC–MS)

[19] = The drug is tested on Blautia hansenii strain: DSM20583 for biotransformation. The drug concentrations were measured before and after a 12-h incubation by liquid-chromatography-coupled mass spectrometry (LC–MS); settings: 2 µM
[20] = The drug is tested on Providencia rettgeri strain: DSM1131 for biotransformation. The drug concentrations were measured before and after a 12-h incubation by liquid-chromatography-coupled mass spectrometry (LC–MS); assay type: ADME; parameters: dose 2 uM, timepoint 0 vs 12 hours; settings: 2 µM

| SMILES | Bacterial Biotransformation [1] | Bacterial Biotransformation [2] | Bacterial Biotransformation [3] | Bacterial Biotransformation [4] | Bacterial Biotransformation [5] | Bacterial Biotransformation [6] | Bacterial Biotransformation [7] | Bacterial Biotransformation [8] | Bacterial Biotransformation [9] | Bacterial Biotransformation [10] | Bacterial Biotransformation [11] | Bacterial Biotransformation [12] | Bacterial Biotransformation [13] | Bacterial Biotransformation [14] | Bacterial Biotransformation [15] | Bacterial Biotransformation [16] | Bacterial Biotransformation [17] | Bacterial Biotransformation [18] | Bacterial Biotransformation [19] | Bacterial Biotransformation [20] |
| --- | --- | --- | --- | --- | --- | --- | --- | --- | --- | --- | --- | --- | --- | --- | --- | --- | --- | --- | --- | --- |
| CC1=C(CC(=O)O)c2cc(F)ccc2/C1=C\c1ccc([S+](C)[O-])cc1 (centres undefined) | Compound NOT metabolized | Compound NOT metabolized | Compound NOT metabolized | Compound NOT metabolized | Compound NOT metabolized | Compound NOT metabolized | Compound NOT metabolized | Compound NOT metabolized | Compound NOT metabolized | Compound NOT metabolized | Compound NOT metabolized | Compound NOT metabolized | Compound NOT metabolized | Compound NOT metabolized | Compound NOT metabolized | Compound NOT metabolized | Compound NOT metabolized | Compound NOT metabolized | Compound NOT metabolized |  |
| CC(N)C12CC3CC(CC(C3)C1)C2 (centres undefined) [RIMANTADINE] | Compound NOT metabolized | Compound NOT metabolized | Compound NOT metabolized | Compound NOT metabolized | Compound NOT metabolized | Compound NOT metabolized | Compound NOT metabolized | Compound NOT metabolized |  | Compound NOT metabolized |  | Compound NOT metabolized | Compound NOT metabolized | Compound NOT metabolized | Compound NOT metabolized | Compound NOT metabolized | Compound NOT metabolized | Compound NOT metabolized | Compound NOT metabolized | Compound NOT metabolized |
| CC(C)c1nc(N(C)S(C)(=O)=O)nc(-c2ccc(F)cc2)c1/C=C/[C@@H](O)C[C@@H](O)CC(=O)[O-].CC(C)c1nc(N(C)S(C)(=O)=O)nc(-c2ccc(F)cc2)c1/C=C/[C@@H](O)C[C@@H](O)CC(=O)[O-].[Ca+2] [ROSUVASTATIN CALCIUM] | Compound NOT metabolized | Compound NOT metabolized | Compound NOT metabolized | Compound NOT metabolized | Compound NOT metabolized | Compound NOT metabolized | Compound NOT metabolized |  | Compound NOT metabolized | Compound NOT metabolized |  | Compound NOT metabolized | Compound NOT metabolized | Compound NOT metabolized | Compound NOT metabolized | Compound NOT metabolized | Compound NOT metabolized |  | Compound NOT metabolized | Compound NOT metabolized |
| Nc1nc2ccc(OC(F)(F)F)cc2s1 [RILUZOLE] |  | Compound metabolized | Compound NOT metabolized |  | Compound NOT metabolized | Compound NOT metabolized |  | Compound NOT metabolized | Compound NOT metabolized | Compound metabolized | Compound NOT metabolized | Compound metabolized | Compound NOT metabolized | Compound metabolized | Compound NOT metabolized | Compound NOT metabolized | Compound NOT metabolized | Compound NOT metabolized | Compound metabolized |  |
| CN1C(C(=O)Nc2ccccn2)=C(O)c2sccc2S1(=O)=O [TENOXICAM] |  | Compound NOT metabolized | Compound NOT metabolized | Compound NOT metabolized |  | Compound NOT metabolized |  | Compound NOT metabolized | Compound NOT metabolized | Compound NOT metabolized | Compound NOT metabolized |  | Compound NOT metabolized | Compound NOT metabolized | Compound NOT metabolized | Compound NOT metabolized | Compound NOT metabolized | Compound NOT metabolized | Compound NOT metabolized |  |
| C[C@@H](c1ncncc1F)[C@](O)(Cn1cncn1)c1ccc(F)cc1F [VORICONAZOLE] | Compound NOT metabolized | Compound metabolized | Compound NOT metabolized | Compound NOT metabolized | Compound NOT metabolized | Compound NOT metabolized | Compound NOT metabolized | Compound metabolized | Compound metabolized | Compound NOT metabolized | Compound NOT metabolized | Compound metabolized | Compound NOT metabolized | Compound metabolized | Compound NOT metabolized | Compound NOT metabolized | Compound NOT metabolized | Compound NOT metabolized | Compound NOT metabolized |  |
| CCOC(=O)C1=C[C@]2(CC)CCCN3CCc4c(n1c1ccccc41)[C@@H]32 [VINPOCETINE] |  | Compound NOT metabolized | Compound NOT metabolized | Compound NOT metabolized | Compound NOT metabolized | Compound NOT metabolized | Compound NOT metabolized | Compound NOT metabolized | Compound NOT metabolized | Compound NOT metabolized |  |  | Compound NOT metabolized |  | Compound NOT metabolized | Compound NOT metabolized |  | Compound NOT metabolized | Compound metabolized | Compound NOT metabolized |
